Measured values: PubChem BioAssay (NCI)
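Compound exposure: 48 hours, 5 concentrations, 96-well plates. TGI marks complete inhibition of growth.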

Legend:
Assay in all cases: DTP human tumour cell line panel, 48 h
786-0 renal = test system: 786-0 renal
A498 renal = test system: A498 renal
A549 NSCLC = test system: A549 NSCLC
ACHN renal = test system: ACHN renal
BT-549 breast = test system: BT-549 breast
CAKI-1 renal = test system: CAKI-1 renal
CCRF-CEM leukemia = test system: CCRF-CEM leukemia
COLO 205 colon = test system: COLO 205 colon
DU-145 prostate = test system: DU-145 prostate
EKVX NSCLC = test system: EKVX NSCLC
HCC-2998 colon = test system: HCC-2998 colon
HCT-116 colon = test system: HCT-116 colon
HCT-15 colon = test system: HCT-15 colon
HL-60(TB) leukemia = test system: HL-60(TB) leukemia
HOP-62 NSCLC = test system: HOP-62 NSCLC
HOP-92 NSCLC = test system: HOP-92 NSCLC
HS 578T breast = test system: HS 578T breast
HT29 colon = test system: HT29 colon
IGROV1 ovarian = test system: IGROV1 ovarian
K-562 leukemia = test system: K-562 leukemia
KM12 colon = test system: KM12 colon
LOX IMVI melanoma = test system: LOX IMVI melanoma
M14 melanoma = test system: M14 melanoma
MALME-3M melanoma = test system: MALME-3M melanoma
MCF7 breast = test system: MCF7 breast
MDA-MB-231 breast = test system: MDA-MB-231 breast
MDA-MB-435 = test system: MDA-MB-435
MDA-N = test system: MDA-N
MOLT-4 leukemia = test system: MOLT-4 leukemia
NCI-H226 lung = test system: NCI-H226 lung
NCI-H23 lung = test system: NCI-H23 lung
NCI-H460 lung = test system: NCI-H460 lung
NCI-H522 lung = test system: NCI-H522 lung
NCI/ADR-RES ovarian = test system: NCI/ADR-RES ovarian
OVCAR-3 ovarian = test system: OVCAR-3 ovarian
OVCAR-4 ovarian = test system: OVCAR-4 ovarian
OVCAR-5 ovarian = test system: OVCAR-5 ovarian
OVCAR-8 ovarian = test system: OVCAR-8 ovarian
PC-3 prostate = test system: PC-3 prostate
RPMI-8226 leukemia = test system: RPMI-8226 leukemia
RXF 393 renal = test system: RXF 393 renal
SF-268 CNS = test system: SF-268 CNS
SF-295 CNS = test system: SF-295 CNS
SF-539 CNS = test system: SF-539 CNS
SK-MEL-2 melanoma = test system: SK-MEL-2 melanoma
SK-MEL-28 melanoma = test system: SK-MEL-28 melanoma
SK-MEL-5 melanoma = test system: SK-MEL-5 melanoma
SK-OV-3 ovarian = test system: SK-OV-3 ovarian
SN12C renal = test system: SN12C renal
SNB-19 CNS = test system: SNB-19 CNS
SNB-75 CNS = test system: SNB-75 CNS
SR leukemia = test system: SR leukemia
SW-620 colon = test system: SW-620 colon
T-47D breast = test system: T-47D breast
TK-10 renal = test system: TK-10 renal
U251 CNS = test system: U251 CNS
UACC-257 melanoma = test system: UACC-257 melanoma
UACC-62 melanoma = test system: UACC-62 melanoma
UO-31 renal = test system: UO-31 renal

## CCOC(=O)C12CCC(c3c(C)cccc3C)(O1)C(C(=O)OC)=C2C(=O)OC (centres undefined)
786-0 renal
  TGI: > 10 µM
A498 renal
  TGI: 7 µM
A549 NSCLC
  TGI: > 10 µM
ACHN renal
  TGI: > 10 µM
BT-549 breast
  TGI: > 10 µM
CAKI-1 renal
  TGI: > 10 µM
CCRF-CEM leukemia
  TGI: > 10 µM
COLO 205 colon
  TGI: 5.08 µM
DU-145 prostate
  TGI: > 10 µM
EKVX NSCLC
  TGI: > 10 µM
HCC-2998 colon
  TGI: > 10 µM
HCT-116 colon
  TGI: > 10 µM
HCT-15 colon
  TGI: > 10 µM
HL-60(TB) leukemia
  TGI: > 7.4 µM
HOP-62 NSCLC
  TGI: > 10 µM
HOP-92 NSCLC
  TGI: > 10 µM
HS 578T breast
  TGI: > 9.49 µM
HT29 colon
  TGI: 4.72 µM
IGROV1 ovarian
  TGI: > 10 µM
K-562 leukemia
  TGI: > 10 µM
KM12 colon
  TGI: > 10 µM
LOX IMVI melanoma
  TGI: > 7.87 µM
M14 melanoma
  TGI: > 9.53 µM
MALME-3M melanoma
  TGI: 6.4 µM
MCF7 breast
  TGI: > 10 µM
MDA-MB-231 breast
  TGI: 9.93 µM
MDA-MB-435
  TGI: 2.27 µM
MDA-N
  TGI: 1.98 µM
MOLT-4 leukemia
  TGI: > 10 µM
NCI-H226 lung
  TGI: > 10 µM
NCI-H23 lung
  TGI: > 8.69 µM
NCI-H460 lung
  TGI: > 10 µM
NCI-H522 lung
  TGI: > 10 µM
NCI/ADR-RES ovarian
  TGI: > 10 µM
OVCAR-3 ovarian
  TGI: 4.2 µM
OVCAR-4 ovarian
  TGI: > 10 µM
OVCAR-5 ovarian
  TGI: > 9.61 µM
OVCAR-8 ovarian
  TGI: > 10 µM
PC-3 prostate
  TGI: > 10 µM
RPMI-8226 leukemia
  TGI: > 10 µM
RXF 393 renal
  TGI: > 10 µM
SF-268 CNS
  TGI: > 10 µM
SF-295 CNS
  TGI: > 10 µM
SF-539 CNS
  TGI: 4.76 µM
SK-MEL-2 melanoma
  TGI: > 10 µM
SK-MEL-28 melanoma
  TGI: > 10 µM
SK-MEL-5 melanoma
  TGI: 5.37 µM
SK-OV-3 ovarian
  TGI: > 10 µM
SN12C renal
  TGI: > 10 µM
SNB-19 CNS
  TGI: > 10 µM
SNB-75 CNS
  TGI: 9.85 µM
SR leukemia
  TGI: 6.06 µM
SW-620 colon
  TGI: > 10 µM
T-47D breast
  TGI: > 10 µM
TK-10 renal
  TGI: > 10 µM
U251 CNS
  TGI: > 10 µM
UACC-257 melanoma
  TGI: 8.15 µM
UACC-62 melanoma
  TGI: > 10 µM
UO-31 renal
  TGI: > 10 µM

## CCN(CC)CCC(=O)Nc1ccc2sc3ccccc3c(=O)c2n1
786-0 renal
  TGI: 35.1 µM
A549 NSCLC
  TGI: 37 µM
ACHN renal
  TGI: 38.1 µM
BT-549 breast
  TGI: 36.1 µM
CAKI-1 renal
  TGI: 28.8 µM
CCRF-CEM leukemia
  TGI: 75.6 µM
COLO 205 colon
  TGI: 29.1 µM
DU-145 prostate
  TGI: > 100 µM
EKVX NSCLC
  TGI: > 100 µM
HCC-2998 colon
  TGI: 42.7 µM
HCT-116 colon
  TGI: 29.4 µM
HCT-15 colon
  TGI: 62.3 µM
HL-60(TB) leukemia
  TGI: 30.9 µM
HOP-62 NSCLC
  TGI: 37.8 µM
HOP-92 NSCLC
  TGI: 0.0992 µM
HS 578T breast
  TGI: 46.1 µM
HT29 colon
  TGI: > 100 µM
IGROV1 ovarian
  TGI: 35.8 µM
K-562 leukemia
  TGI: 41.4 µM
KM12 colon
  TGI: 32.1 µM
LOX IMVI melanoma
  TGI: 38.9 µM
M14 melanoma
  TGI: 28.1 µM
MALME-3M melanoma
  TGI: 39.1 µM
MCF7 breast
  TGI: 36.5 µM
MDA-MB-435
  TGI: 26.4 µM
MDA-N
  TGI: 30.3 µM
MOLT-4 leukemia
  TGI: > 100 µM
NCI-H23 lung
  TGI: 43.8 µM
NCI-H460 lung
  TGI: 61.6 µM
NCI-H522 lung
  TGI: 30.4 µM
NCI/ADR-RES ovarian
  TGI: 72 µM
OVCAR-3 ovarian
  TGI: 43.2 µM
OVCAR-4 ovarian
  TGI: > 100 µM
OVCAR-5 ovarian
  TGI: 42.5 µM
OVCAR-8 ovarian
  TGI: 62.4 µM
PC-3 prostate
  TGI: 40.9 µM
RPMI-8226 leukemia
  TGI: 43.5 µM
SF-268 CNS
  TGI: 48.5 µM
SF-295 CNS
  TGI: 48.9 µM
SF-539 CNS
  TGI: 33.4 µM
SK-MEL-2 melanoma
  TGI: 45.8 µM
SK-MEL-28 melanoma
  TGI: 33.6 µM
SK-MEL-5 melanoma
  TGI: 33.8 µM
SK-OV-3 ovarian
  TGI: 36.7 µM
SN12C renal
  TGI: 77.8 µM
SNB-19 CNS
  TGI: 53.1 µM
SNB-75 CNS
  TGI: 21.6 µM
SR leukemia
  TGI: > 100 µM
SW-620 colon
  TGI: 33.9 µM
T-47D breast
  TGI: 45.9 µM
TK-10 renal
  TGI: 57.5 µM
U251 CNS
  TGI: 28.8 µM
UACC-257 melanoma
  TGI: 37.5 µM
UACC-62 melanoma
  TGI: 35 µM
UO-31 renal
  TGI: 22.2 µM
